# Test results published in US7772255B2, “Method of treating tumors with azaxanthones” (Supratek Pharma, Inc., priority 2005, dated 2010).
# Where a name gives a salt, the structure may show the parent alone.
# Tests used:
# [1] = Chemical stability of Amlexanox sodium salt solution (HPLC); format: physicochemical; conditions: 20 mg Amlexanox sodium salt in 2 mL Tris buffer pH 7.2; 0.05 molar equivalent of the listed compound; 72 hours, ambient light, access to air; HPLC peak area
# Experimental: 20 mg of crystalline Amlexanox sodium salt was dissolved in a clear glass test tube in 2 mL of Tris buffer, pH 7.2. For each of the stabilizing compounds listed in the Table below, 0.05 molar equivalent of the compound was added to the solution, mixed until dissolved, and left under ambient light, and with access to the air. Concentration of Amlexanox in the sample was determined by HPLC right after preparation, and after 72 hours. The chemical stability of Amlexanox was evaluated by comparison of area under the peak of amlexanox from the two analyses.
# [2] = test system: S100A4-positive CSML100 cells; assay: Metastasis formation by S100A4-positive CSML100 cells in animal model (Example 6); format: in vivo, mouse; conditions: 100 mg/kg i.v. daily for 10 days
# Experimental: In both groups the injection volume was 5 ml/kg. The treatments were started from the day following the tumor cell implantation for 10 consecutive days. The animal body weight was recorded as an index of treatment toxicity during the experiment.
# Starting from the day 10 after the cell implantation, one animal of the control group was sacrificed every day to monitor the metastasis development. All animals were sacrificed on day 18 for routine metastasis inspection. […] The metastatic colonies on the organ surface were enumerated immediately following the removal of the organ.
# The data were expressed as mean±SEM for the number of metastatic sites.
# CSML100 cells [3] = assay: CSML100 (murine mammary carcinoma) experimental metastasis model (Example 24); format: in vivo, mouse; conditions: 100 mg/kg/day i.v., 10 daily injections
# Experimental: Amlexanox solution for injections was prepared according to the Example 4. CSML100 cells were inoculated intravenously in 26 female A/J mice (6-7 weeks old). Animals were then divided randomly into two groups: 1) untreated control (n=16, saline) and 2) Amlexanox treated (n=10, 100 mg/kg/day, i.v.; 10 daily injections). The control group received i.v. injections with 5 ml/kg (volume/body weight) of saline, while Amlexanox was administrated intravenously daily with a dose of 100 mg/kg in a volume of 5 ml/kg. Treatment was started on the day following the day of tumor cell implantation and continued for 10 consecutive days. The animal body weight was recorded as an index of treatment toxicity during the experiment. From the day 10 after cell implantation, one animal in the control group was sacrificed every day to monitor the metastasis development. All remaining animals were sacrificed on the day 18 for routine metastasis inspection. Although all organs were routinely screened, metastatic formation was only found in the lungs. The metastatic colonies on the organ surface were enumerated immediately following the removal of the organ.
# A maximum body weight loss in treated group was less than 10%. The data are expressed as mean±SEM for the number of metastatic sites on the lung surface.
# CSML100 cells [4] = assay: S100A4-positive lung metastasis tumor model, alone or in combinations (Example 25); format: in vivo, mouse; conditions: CSML100 i.v. in A/J mice, 10 days, mean±SEM
# Experimental: Amlexanox solution for injections was prepared according to the Example 4. […] The animals were then divided randomly into 9 groups (n=9 except for control group): 1) intact control (n=13, saline); 2) Amlexanox (i.v. 100 mg/kg); 3) Amlexanox ([…]. 3 mg/kg); 5) Amlexanox ([…]. […] 10 mg/kg). […] The treatments were started on the day following the tumor cell implantation and continued for 10 consecutive days. […] The animal body weight was recorded as an index of treatment toxicity during the experiment. […] The data are expressed as mean±SEM for the number of metastatic sites on the lung surface.
# B16F10/DX cells = assay: B16 experimental metastasis model (Example 26); format: in vivo, mouse; conditions: B16F10/DX i.v. in C57BL/6 mice; Amlexanox 100 mg/kg daily p.o.; mean±SEM
# Experimental: Amlexanox solution for injections was prepared according to the Example 4. B16F10/DX cell (2.0×10^5 cells per animal) were inoculated intravenously in female C57BL//6 mice (6-7 weeks old) and animals were then divided randomly into 4 groups (n=9 except for control group): 1) intact control (n=12, saline); 2) Amlexanox (100 mg/kg, daily p.o. administration); 3) TPT (2.0 mg/kg i.v. administration on day 1, 4, and 7); 5) Amlexanox (daily p.o. 100 mg/kg)+TPT (i.v. 2.0 mg/kg on day 1, 4, and 7). Intact control received oral administration with 10 ml/kg (volume/body weight) of saline, while Amlexanox was administrated orally and daily with a dose of 100 mg/kg in a volume of 10 ml/kg. The treatments were started from the day following the tumor cell implantation until the end of the protocol. However, TPT was administrated intravenously only on day 1, 4, and 7 after tumor implantation. The animal body weight was recorded as an index of treatment toxicity during the experiment.
# The data in Table show metastasis formation in the lung in the mice implanted with B16F10/DX cells. The data are expressed as mean±SEM for the number of metastatic sites on the lung surface.
# [5] = CSML100 cells i.v. in female A/J mice, day 18, mean±SEM
Compound,Retained Amlexnox [1] [%],"Average of lung metastasis number per animal [2, 5]","Trial/control × 100% ([2]; lung metastasis number, day 18) [%]",inhibition on metastases formation ([2]; mice inoculated CSML100 cells),"body weight loss ([2]; non-significant, A/J mice)",Average of lung metastasis number per animal (sample number) (CSML100 cells [3]; [5]),"Treated/control × 100% (CSML100 cells [3]; lung metastasis number, day 18) [%]","maximum body weight loss (CSML100 cells [3]; treated group, A/J mice)",Lung Metastasis Number per Animal (CSML100 cells [4]; Amlexanox i.v. 100 mg/kg daily),Lung Metastasis Number per Animal (CSML100 cells [4]; Amlexanox p.o. 200 mg/kg daily),Lung Metastasis Number per Animal (B16F10/DX cells)
"CC(C)c1ccc2oc3nc(N)c(C(=O)O)cc3c(=O)c2c1 [Amlexanox (salt), 2-amino-7-isopropyl-1-azaxanthone-3-carboxylic acid sodium salt]",93.8,,,,,,,,,,
"CC(C)c1ccc2oc3nc(N)c(C(=O)O)cc3c(=O)c2c1 [Amlexanox, 2-amino-7-isopropyl-1-azaxanthone-3-carboxylic acid]",,18.8 ± 2.3,48.5,significant inhibition on metastases formation,less than 10%,18.8 ± 2.3 (9),48.5,less than 10%,29.6 ± 3.89,26.2 ± 4.16,71.3 ± 15.5
